Test results published in patent publication US12545681B2, “Compound used as RET kinase inhibitor and application thereof” (TYK Medicines, Inc., priority 2020, dated 2026).
Numbering of substitutions follows the chain as printed.

Key:
[1] = molecular target: T1, Ba/F3-KIF5B-RET-V804L (Homo sapiens, UniProt P07949, V804L); assay: Cell anti-proliferation (CellTiter-Glo), Ba/F3-KIF5B-RET-V804L cells; type: cell-based; details: cell viability, 72 h incubation
T1 construct: KIF5B (fusion partner, N-terminal part of kinesin-1 heavy chain, P33176); host or cells: Ba/F3 (murine pro-B cells); the other entry of the earlier key: KIF5B (P33176, Kinesin-1 heavy chain)
T1 sequence (P07949 713-1063 V804L limits assumed): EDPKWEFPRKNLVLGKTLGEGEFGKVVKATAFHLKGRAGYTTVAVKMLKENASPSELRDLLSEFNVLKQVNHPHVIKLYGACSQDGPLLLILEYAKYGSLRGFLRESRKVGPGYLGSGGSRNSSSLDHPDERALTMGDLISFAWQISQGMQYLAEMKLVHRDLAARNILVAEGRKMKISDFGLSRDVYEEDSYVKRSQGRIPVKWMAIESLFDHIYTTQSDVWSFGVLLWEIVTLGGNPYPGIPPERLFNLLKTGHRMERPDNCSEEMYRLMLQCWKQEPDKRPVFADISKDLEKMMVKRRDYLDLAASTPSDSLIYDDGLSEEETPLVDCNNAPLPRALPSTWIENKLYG
Description: (§1) Ba/F3-KIF5B-RET, Ba/F3-KIF5B-RET-V804L and Ba/F3-KIF5B-RET-V804M cells were constructed by PreceDo Pharmaceuticals Co., Ltd.
(§2) Ba/F3-KIF5B-RET, Ba/F3-KIF5B-RET-V804L and Ba/F3-KIF5B-RET-V804M medium: RPMI-1640+10% FBS+1% P/S.
(§3) A 1000×solution of the compound was prepared with DMSO, the compound was diluted to 20 times to obtain the final concentration with a growth medium, and 2 μl 1000×cpd was added to 98 μl growth medium.
(§4) Cells were centrifuged and resuspended with growth medium and cell counting was performed using a cell counter. The cell suspension was diluted with growth medium to the desired concentration. 95 uL of the diluted cell suspension was taken out to a 96-well plate. 5 μL of 20×compound solution was added to the 96-well plate to a final DMSO concentration of 0.1% per well. The 96-well plate was incubated for 72 h at 37° C. with 5% CO2.
(§5) The 96-well plate was equilibrated to room temperature before the assay, 50 μl of CellTiter-Glo® Reagent was added to each well, the cells were fully lysed by shaking for 2 minutes on a shaker, incubated for 10 minutes at room temperature, and Paradigm was used to detect and record the […] readings.
(§6) Cell viability was analyzed using Graphpad 7.0 software according to the formula Cell viability (CV %)=(RLU compound−RLU blank)/(RLU control−RLU blank)*100%, and the corresponding IC50 data were calculated, in Table 1, the following names are used: <10.00 nM=A; 10.01-50.0 nM=B; >50 nM=C.

[2] = molecular target: T2, Ba/F3-KIF5B-RET-V804M (Homo sapiens, UniProt P07949, V804M); assay: Cell anti-proliferation (CellTiter-Glo), Ba/F3-KIF5B-RET-V804M cells; type: cell-based; details: cell viability, 72 h incubation
T2 construct: KIF5B (fusion partner, N-terminal part of kinesin-1 heavy chain, P33176); host or cells: Ba/F3 (murine pro-B cells); the other entry of the earlier key: KIF5B (P33176, Kinesin-1 heavy chain)
T2 sequence (P07949 713-1063 V804M limits assumed): T1 sequence (P07949 713-1063 V804L limits assumed) with L92M
Description: as §1, §2, §3, §4, §5, §6

[3] = molecular target: T3, Ba/F3-KIF5B-RET (Homo sapiens, UniProt P07949); assay: Cell anti-proliferation (CellTiter-Glo), Ba/F3-KIF5B-RET cells; type: cell-based; details: for IC50: cell viability, 72 h incubation, CellTiter-Glo
T3 construct: KIF5B (fusion partner, N-terminal part of kinesin-1 heavy chain, P33176); host or cells: Ba/F3 (murine pro-B cells); the other entry of the earlier key: KIF5B (P33176, Kinesin-1 heavy chain)
T3 sequence (P07949 713-1063 limits assumed): T1 sequence (P07949 713-1063 V804L limits assumed) with L92V
Description: as §1, §2, §3, §4, §5, §6

[4] = tested on: Ba/F3-KIF5B-RET cells; assay: In vivo efficacy study, subcutaneous Ba/F3-KIF5B-RET tumor in nude mice; parameters: species or system BALB/c nude mice; details: 10 mg/kg P.O. BID x 3 weeks
Description: Cell culture: Ba/F3-KIF5B-RET cell line was cultured with 1640 medium (Biological Industries)+10%/f fetal bovine serum (BI)+1% double antibody (Penicillin Streptomycin solution, Corning, USA) at 37° C. with 5% CO2. Two passages were performed for one week. When the cell saturation was 80%-90% and the number reached the required level, the cells were collected, counted and inoculated.
Animals: BALB/c nude mice, female, 6-8 weeks of age, weighing 18-22 g. A total of 18 mice were required, provided by Beijing Vital River Laboratory Animal Technology Co., Ltd.
Tumor inoculation: 0.2 ml (2×106) Ba/F3-KIF5B-RET cells (plus stromal gel, volume ratio 1:1) were inoculated subcutaneously on the right posterior dorsum of each mouse, and group dosing was started when the average tumor volume reached about 150-200 mm^3.
Experimental index: Tumor volume and body weight were measured twice a week. Tumor volume was measured by vernier calipers with the formula TV=0.5 a×b2, where a is the long diameter of the tumor and b is the short diameter of the tumor.

Structure (SMILES) | IC50 [1] [nM] | IC50 [2] [nM] | IC50 [3] [nM] | other results
COCCn1ncc2c(Nc3cc(C)[nH]n3)nc([C@H]3CC[C@](OC)(C(=O)N[C@@H](C)c4cnc(-n5cc(F)cn5)cn4)CC3)nc21 [Compound C10] | < 10 | 10 to 50 | < 10 | –
CO[C@]1(C(=O)N[C@@H](C)c2cnc(-n3cc(F)cn3)s2)CC[C@H](c2nc(Nc3cc(C)[nH]n3)c3cnn(C4CC4)c3n2)CC1 [Compound C14] | < 10 | 10 to 50 | < 10 | –
CO[C@]1(C(=O)N[C@@H](C)c2ccc(-n3cc(F)cn3)nc2)CC[C@H](c2nc(Nc3cc(C)[nH]n3)c3cnn(CC(F)F)c3n2)CC1 [Compound C6] | < 10 | < 10 | < 10 | –
CCCn1ncc2c(Nc3cc(C)[nH]n3)nc([C@H]3CC[C@](OC)(C(=O)N[C@@H](C)c4cnc(-n5cc(F)cn5)cn4)CC3)nc21 [Compound C22] | 10 to 50 | 10 to 50 | 10 to 50 | –
CO[C@]1(C(=O)N[C@@H](C)c2ccc(-n3cc(F)cn3)nc2)CC[C@H](c2nc(Nc3cc(C)[nH]n3)c3cnn(CCF)c3n2)CC1 [Compound C18] | < 10 | < 10 | < 10 | –
[2H]C([2H])([2H])n1ncc2c(Nc3cc(C)[nH]n3)nc([C@H]3CC[C@](OC)(C(=O)N[C@@H](C)c4ccc(-n5cc(F)cn5)nc4)CC3)nc21 [Compound C3] | < 10 | < 10 | < 10 | –
CCn1ncc2c(Nc3cc(C)[nH]n3)nc([C@H]3CC[C@](OC)(C(=O)N[C@@H](C)c4csc(-n5cc(F)cn5)n4)CC3)nc21 [Compound C15] | < 10 | 10 to 50 | < 10 | –
CO[C@]1(C(=O)N[C@@H](C)c2cnc(-n3cc(F)cn3)cn2)CC[C@H](c2nc(Nc3cc(C)[nH]n3)c3cnn(C4CC(F)(F)C4)c3n2)CC1 [Compound C11] | 10 to 50 | 10 to 50 | 10 to 50 | –
CO[C@]1(C(=O)N[C@@H](C)c2cnc(-n3cc(F)cn3)cn2)CC[C@H](c2nc(Nc3cc(C)[nH]n3)c3cnn(C)c3n2)CC1 [Compound C8] | < 10 | < 10 | < 10 | –
CO[C@]1(C(=O)N[C@@H](C)c2cnc(-n3cc(F)cn3)cn2)CC[C@H](c2nc(Nc3cc(C)[nH]n3)c3cnn(CC4CC4)c3n2)CC1 [Compound C12] | < 10 | 10 to 50 | < 10 | –
CO[C@]1(C(=O)N[C@@H](C)c2cnc(-n3cc(F)cn3)cn2)CC[C@H](c2nc(Nc3cc(C)[nH]n3)c3cnn(CC(F)(F)F)c3n2)CC1 [Compound C23] | < 10 | 10 to 50 | < 10 | RET inhibitory activity / inhibition effect (in words) ([3]; summary of Table 1, especially Ba/F3-KIF5B-RET-V804M and Ba/F3-KIF5B-RET-V804L): superior to that of Control Example 3
CO[C@]1(C(=O)N[C@@H](C)c2cnc(-n3cc(F)cn3)cn2)CC[C@H](c2nc(Nc3cc(C)[nH]n3)c3cnn(C4CC4)c3n2)CC1 [Compound C20] | < 10 | < 10 | < 10 | –
CO[C@]1(C(=O)N[C@@H](C)c2ccc(-n3cc(F)cn3)nc2)CC[C@H](c2nc(Nc3cc(C)[nH]n3)c3cnn(COCC[Si](C)(C)C)c3n2)CC1 [Compound C2] | 10 to 50 | > 50 | > 50 | –
CCn1ncc2c(Nc3cc(C)[nH]n3)nc([C@H]3CC[C@](OC)(C(=O)N[C@@H](C)c4cnc(-n5cc(F)cn5)cn4)CC3)nc21 [Compound C5] | < 10 | < 10 | < 10 | –
CO[C@]1(C(=O)N[C@@H](C)c2cnc(-n3cc(F)cn3)cn2)CC[C@H](c2nc(Nc3cc(C)[nH]n3)c3cnn(CC(F)F)c3n2)CC1 [Compound C7] | < 10 | < 10 | < 10 | –
CO[C@]1(C(=O)N[C@@H](C)c2ccc(-n3cc(F)cn3)nc2)CC[C@H](c2nc(Nc3cc(C)[nH]n3)c3ccn(C)c3n2)CC1 [Control Example 1, reference compound] | < 10 | < 10 | < 10 | Tumor Volume(mm^3) 0 day ([4]; 0 day): 169.95 mm^3; Tumor Volume(mm^3) 2 days ([4]; 2 days): 157.73 mm^3; Tumor Volume(mm^3) 5 days ([4]; 5 days): 144.57 mm^3; Tumor Volume(mm^3) 9 days ([4]; 9 days): 185.92 mm^3; Tumor Volume(mm^3) 12 days ([4]; 12 days): 204.18 mm^3; Tumor Volume(mm^3) 16 days ([4]; 16 days): 272.83 mm^3; Tumor Volume(mm^3) 19 days ([4]; 19 days): 277.52 mm^3; Tumor Volume(mm^3) 22 days ([4]; 22 days): 292.41 mm^3
CO[C@]1(C(=O)N[C@@H](C)c2cnc(-n3cc(F)cn3)cn2)CC[C@H](c2nc(Nc3cc(C)[nH]n3)c3cnn(C4COC4)c3n2)CC1 [Compound C21] | 10 to 50 | 10 to 50 | 10 to 50 | –
[2H]C([2H])([2H])n1ncc2c(Nc3cc(C)[nH]n3)nc([C@H]3CC[C@](OC)(C(=O)N[C@@H](C)c4cnc(-n5cc(F)cn5)cn4)CC3)nc21 [Compound C9] | < 10 | < 10 | < 10 | –
CO[C@]1(C(=O)N[C@@H](C)c2cnc(-n3cc(F)cn3)cn2)CC[C@H](c2nc(Nc3cc(C)[nH]n3)c3cn(CC(F)(F)F)nc3n2)CC1 [Control Example 3, reference compound] | 10 to 50 | > 50 | 10 to 50 | –
CO[C@]1(C(=O)N[C@@H](C)c2csc(-n3cc(F)cn3)n2)CC[C@H](c2nc(Nc3cc(C)[nH]n3)c3cnn(C4CC4)c3n2)CC1 [Compound C16] | < 10 | 10 to 50 | < 10 | –
CCn1ncc2c(Nc3cc(C)[nH]n3)nc([C@H]3CC[C@](OC)(C(=O)N[C@@H](C)c4ccc(-n5cc(F)cn5)nc4)CC3)nc21 [Compound C4] | < 10 | < 10 | < 10 | –
CCn1ncc2c(Nc3cc(C)[nH]n3)nc([C@H]3CC[C@](OC)(C(=O)N[C@@H](C)c4cnc(-n5cc(F)cn5)s4)CC3)nc21 [Compound C13] | < 10 | 10 to 50 | < 10 | –
